According to article PMC10653547, “Synergistic effect of two antimicrobial peptides, BP203 and MAP-0403 J-2 with conventional antibiotics against colistin-resistant Escherichia coli and Klebsiella pneumoniae clinical isolates” (PLOS ONE, 2023):
Blank lines part the entries; values can stand above or below the molecule they belong to.

Key:
[1] = test system: colistin-resistant K. pneumoniae clinical isolates; test: Checkerboard assay for synergy testing; type: cell-based, Klebsiella pneumoniae
Experimental: (§1) The synergistic activities of various two-antimicrobial combinations against colistin-resistant E. coli and K. pneumoniae isolates were evaluated using the checkerboard assay, which was performed in 96-well plates. […] Two-fold serial dilutions of peptides and antibiotics were independently prepared in CAMHB. Afterward, a mixture of different concentrations of the antibiotics and peptides was added to the wells of the microplates. Antibiotics and peptides were also dispended alone in the first row and the first column, respectively. Bacterial inoculum was added to the 96-well plate to achieve a final concentration of 5 × 10^5 CFU/mL. Then, plates were incubated at 37 °C for 20–24 h. MICs were recorded as the minimum concentration of antimicrobial agents without bacterial growth. The interaction between the antimicrobials was determined by calculating the fractional inhibitory concentration index (FICI) according to the formula: FICI = FIC(drug A) + FIC(drug B), where FIC = the MIC of the drug when in the combination/MIC of drug tested individually.

[2] = test system: colistin-resistant E. coli clinical isolates; test: Checkerboard assay for synergy testing; type: cell-based, Escherichia coli
Experimental: as §1

[3] = checkerboard BP203 x meropenem, KP-01
[4] = checkerboard BP203 x meropenem, KP-02
[5] = checkerboard BP203 x meropenem, KP-03
[6] = checkerboard BP203 x meropenem, KP-04
[7] = checkerboard BP203 x meropenem, KP-05
[8] = checkerboard BP203 x meropenem, KP-06
[9] = checkerboard BP203 x meropenem, KP-08
[10] = checkerboard BP203 x meropenem, KP-09
[11] = checkerboard BP203 x meropenem, KP-10
[12] = checkerboard MAP-0403 J-2 x meropenem, KP-01
[13] = checkerboard MAP-0403 J-2 x meropenem, KP-02
[14] = checkerboard MAP-0403 J-2 x meropenem, KP-03
[15] = checkerboard MAP-0403 J-2 x meropenem, KP-05
[16] = checkerboard MAP-0403 J-2 x meropenem, KP-06
[17] = checkerboard MAP-0403 J-2 x meropenem, KP-07
[18] = checkerboard MAP-0403 J-2 x meropenem, KP-08
[19] = checkerboard MAP-0403 J-2 x meropenem, KP-09
[20] = checkerboard MAP-0403 J-2 x meropenem, KP-10
[21] = isolate EC-01, checkerboard Rifampicin+BP203
[22] = isolate EC-01, checkerboard Rifampicin+MAP-0403 J-2
[23] = isolate EC-02, checkerboard Rifampicin+BP203
[24] = isolate EC-02, checkerboard Rifampicin+MAP-0403 J-2
[25] = isolate EC-03, checkerboard Rifampicin+BP203
[26] = isolate EC-03, checkerboard Rifampicin+MAP-0403 J-2
[27] = isolate EC-04, checkerboard Rifampicin+BP203
[28] = isolate EC-04, checkerboard Rifampicin+MAP-0403 J-2
[29] = isolate EC-05, checkerboard Rifampicin+BP203
[30] = isolate EC-05, checkerboard Rifampicin+MAP-0403 J-2
[31] = isolate EC-06, checkerboard Rifampicin+BP203
[32] = isolate EC-06, checkerboard Rifampicin+MAP-0403 J-2
[33] = isolate EC-07, checkerboard Rifampicin+BP203
[34] = isolate EC-07, checkerboard Rifampicin+MAP-0403 J-2
[35] = isolate EC-08, checkerboard Rifampicin+BP203
[36] = isolate EC-08, checkerboard Rifampicin+MAP-0403 J-2
[37] = isolate EC-09, checkerboard Rifampicin+BP203
[38] = isolate EC-09, checkerboard Rifampicin+MAP-0403 J-2
[39] = isolate EC-10, checkerboard Rifampicin+BP203
[40] = isolate EC-10, checkerboard Rifampicin+MAP-0403 J-2
[41] = isolate KP-01, checkerboard Rifampicin+BP203
[42] = isolate KP-01, checkerboard Rifampicin+MAP-0403 J-2
[43] = isolate KP-02, checkerboard Rifampicin+BP203
[44] = isolate KP-02, checkerboard Rifampicin+MAP-0403 J-2
[45] = isolate KP-03, checkerboard Rifampicin+BP203
[46] = isolate KP-03, checkerboard Rifampicin+MAP-0403 J-2
[47] = isolate KP-04, checkerboard Rifampicin+BP203
[48] = isolate KP-04, checkerboard Rifampicin+MAP-0403 J-2
[49] = isolate KP-05, checkerboard Rifampicin+BP203
[50] = isolate KP-05, checkerboard Rifampicin+MAP-0403 J-2
[51] = isolate KP-06, checkerboard Rifampicin+BP203
[52] = isolate KP-06, checkerboard Rifampicin+MAP-0403 J-2
[53] = isolate KP-07, checkerboard Rifampicin+BP203
[54] = isolate KP-07, checkerboard Rifampicin+MAP-0403 J-2
[55] = isolate KP-08, checkerboard Rifampicin+BP203
[56] = isolate KP-08, checkerboard Rifampicin+MAP-0403 J-2
[57] = isolate KP-09, checkerboard Rifampicin+BP203
[58] = isolate KP-09, checkerboard Rifampicin+MAP-0403 J-2
[59] = isolate KP-10, checkerboard Rifampicin+BP203
[60] = isolate KP-10, checkerboard Rifampicin+MAP-0403 J-2

MIC alone [1, 3]: 8 µg/mL
MIC combination [1, 3]: 2 µg/mL
MIC alone [1, 4]: 16 µg/mL
MIC combination [1, 4]: 4 µg/mL
MIC alone [1, 5]: 64 µg/mL
MIC combination [1, 5]: 16 µg/mL
MIC alone [1, 6]: 256 µg/mL
MIC combination [1, 6]: 64 µg/mL
MIC alone [1, 7]: 64 µg/mL
MIC combination [1, 7]: 16 µg/mL
MIC alone [1, 8]: 16 µg/mL
MIC combination [1, 8]: 4 µg/mL
MIC combination ([1]; checkerboard BP203 x meropenem, KP-07): 32 µg/mL
MIC alone [1, 9]: 64 µg/mL
MIC combination [1, 9]: 8 µg/mL
MIC alone [1, 10]: 64 µg/mL
MIC combination [1, 10]: 16 µg/mL
MIC alone [1, 11]: 16 µg/mL
MIC combination [1, 11]: 4 µg/mL
MIC alone [1, 12]: 4 µg/mL
MIC combination [1, 12]: 2 µg/mL
MIC alone [1, 13]: 8 µg/mL
MIC combination [1, 13]: 8 µg/mL
MIC alone [1, 14]: 32 µg/mL
MIC combination [1, 14]: 0.25 µg/mL
MIC alone [1, 15]: 32 µg/mL
MIC combination [1, 15]: 32 µg/mL
MIC alone [1, 16]: 8 µg/mL
MIC combination [1, 16]: 4 µg/mL
MIC alone [1, 17]: 64 µg/mL
MIC combination [1, 17]: 64 µg/mL
MIC alone [1, 18]: 64 µg/mL
MIC combination [1, 18]: 64 µg/mL
MIC alone [1, 19]: 64 µg/mL
MIC combination [1, 19]: 32 µg/mL
MIC alone [1, 20]: 16 µg/mL
MIC combination [1, 20]: 8 µg/mL
SMILES: C[C@@H](O)[C@H]1C(=O)N2C(C(=O)O)=C(S[C@@H]3CN[C@H](C(=O)N(C)C)C3)[C@H](C)[C@H]12 [Meropenem, meropenem]

MIC alone [2, 21]: 2 µg/mL
MIC combination [2, 21]: 1 µg/mL
MIC alone [2, 22]: 4 µg/mL
MIC combination [2, 22]: 0.5 µg/mL
MIC alone [2, 23]: 4 µg/mL
MIC combination [2, 23]: 0.25 µg/mL
MIC alone [2, 24]: 8 µg/mL
MIC combination [2, 24]: 2 µg/mL
MIC alone [2, 25]: 4 µg/mL
MIC combination [2, 25]: 1 µg/mL
MIC alone [2, 26]: 8 µg/mL
MIC combination [2, 26]: 0.25 µg/mL
MIC alone [2, 27]: 4 µg/mL
MIC combination [2, 27]: 1 µg/mL
MIC alone [2, 28]: 16 µg/mL
MIC combination [2, 28]: 4 µg/mL
MIC alone [2, 29]: 2 µg/mL
MIC combination [2, 29]: 0.5 µg/mL
MIC alone [2, 30]: 8 µg/mL
MIC combination [2, 30]: 2 µg/mL
MIC alone [2, 31]: 4 µg/mL
MIC combination [2, 31]: 1 µg/mL
MIC alone [2, 32]: 8 µg/mL
MIC combination [2, 32]: 1 µg/mL
MIC alone [2, 33]: 4 µg/mL
MIC combination [2, 33]: 1 µg/mL
MIC alone [2, 34]: 16 µg/mL
MIC combination [2, 34]: 4 µg/mL
MIC alone [2, 35]: 2 µg/mL
MIC combination [2, 35]: 0.5 µg/mL
MIC alone [2, 36]: 8 µg/mL
MIC combination [2, 36]: 0.25 µg/mL
MIC alone [2, 37]: 4 µg/mL
MIC combination [2, 37]: 2 µg/mL
MIC alone [2, 38]: 8 µg/mL
MIC combination [2, 38]: 0.5 µg/mL
MIC alone [2, 39]: 2 µg/mL
MIC combination [2, 39]: 0.5 µg/mL
MIC alone [2, 40]: 8 µg/mL
MIC combination [2, 40]: 0.5 µg/mL
MIC alone [1, 41]: 512 µg/mL
MIC combination [1, 41]: 16 µg/mL
MIC alone [1, 42]: 256 µg/mL
MIC combination [1, 42]: 16 µg/mL
MIC alone [1, 43]: 512 µg/mL
MIC combination [1, 43]: 4 µg/mL
MIC alone [1, 44]: 256 µg/mL
MIC combination [1, 44]: 16 µg/mL
MIC alone [1, 45]: 32 µg/mL
MIC combination [1, 45]: 4 µg/mL
MIC alone [1, 46]: 32 µg/mL
MIC combination [1, 46]: 2 µg/mL
MIC alone [1, 47]: 128 µg/mL
MIC combination [1, 47]: 4 µg/mL
MIC alone [1, 48]: 256 µg/mL
MIC combination [1, 48]: 32 µg/mL
MIC alone [1, 49]: 16 µg/mL
MIC combination [1, 49]: 1 µg/mL
MIC alone [1, 50]: 16 µg/mL
MIC combination [1, 50]: 1 µg/mL
MIC alone [1, 51]: 512 µg/mL
MIC combination [1, 51]: 8 µg/mL
MIC alone [1, 52]: 256 µg/mL
MIC combination [1, 52]: 32 µg/mL
MIC alone [1, 53]: 32 µg/mL
MIC combination [1, 53]: 4 µg/mL
MIC alone [1, 54]: 32 µg/mL
MIC combination [1, 54]: 2 µg/mL
MIC alone [1, 55]: 16 µg/mL
MIC combination [1, 55]: 4 µg/mL
MIC alone [1, 56]: 16 µg/mL
MIC combination [1, 56]: 2 µg/mL
MIC alone [1, 57]: 512 µg/mL
MIC combination [1, 57]: 32 µg/mL
MIC alone [1, 58]: 256 µg/mL
MIC combination [1, 58]: 128 µg/mL
MIC alone [1, 59]: 32 µg/mL
MIC combination [1, 59]: 4 µg/mL
MIC alone [1, 60]: 32 µg/mL
MIC combination [1, 60]: 2 µg/mL
SMILES: CO[C@H]1/C=C/O[C@@]2(C)Oc3c(C)c(O)c4c(O)c(c(/C=N/N5CCN(C)CC5)c(O)c4c3C2=O)NC(=O)/C(C)=C\C=C\[C@H](C)[C@H](O)[C@@H](C)[C@@H](O)[C@@H](C)[C@H](OC(C)=O)[C@@H]1C [RIF, rifampicin]
